Patent US6943158B2, “Diazinopyrimidines” (Roche Palo Alto LLC, priority 2002, dated 2005)

Columns and labels:
p38 MAP kinase = molecular target: T1, p38 MAP kinase (Homo sapiens, UniProt Q16539); experiment: in vitro p38 MAP kinase inhibition assay (transfer of γ-33P from ATP to Myelin Basic Protein); assay type: biochemical; details: phosphorylated recombinant p38 MAP kinase, MBP substrate, γ-33P-ATP; read-out: p-38 inhibitory activity, IC50
T1 construct: made in house; host or cells: E. coli (co-expressed with SEK-1 and MEKK to phosphorylate it)
T1 sequence (Q16539 whole entry): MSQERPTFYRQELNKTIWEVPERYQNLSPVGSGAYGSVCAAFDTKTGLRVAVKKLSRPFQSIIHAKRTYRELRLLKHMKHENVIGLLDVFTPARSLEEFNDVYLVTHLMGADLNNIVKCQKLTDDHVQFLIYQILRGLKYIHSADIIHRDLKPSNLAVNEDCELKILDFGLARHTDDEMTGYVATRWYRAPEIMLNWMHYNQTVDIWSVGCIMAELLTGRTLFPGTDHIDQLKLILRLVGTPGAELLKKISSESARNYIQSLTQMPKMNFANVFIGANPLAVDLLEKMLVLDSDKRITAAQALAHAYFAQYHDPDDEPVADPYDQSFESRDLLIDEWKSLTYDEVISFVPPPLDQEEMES
Method: This example illustrates an in vitro assay procedure for determining p38 MAP kinase inhibition by a compound of Formula I.
The p-38 MAP kinase inhibitory activity of compounds of this invention in vitro is determined by measuring the transfer of the γ-phosphate from γ-^33P-ATP by p-38 kinase to Myelin Basic Protein (MBP), using the a minor modification of the method described in Ahn, N. G.; et al. J. Biol. Chem. Vol. 266(7), 4220-4227, (1991).
The phosphorylated form of the recombinant p38 MAP kinase was expressed with SEK-1 and MEKK in E. Coli and then purified by affinity chromatography using a Nickel column.
The phosphorylated p38 MAP kinase is diluted in kinase buffer (20 mM 3-(N-morpholino)propanesulfonic acid, pH 7.2, 25 mM β-glycerol phosphate, 5 mM ethylene glycol-bis(beta-aminoethyl ether)-N,N,N′,N′-tetraacetic acid, 1 mM sodium vanadate, 1 mM dithiothreitol, 40 mM magnesium chloride). Test compound dissolved in DMSO or only DMSO (control) is added and the samples are incubated for 10 min at 30° C. The kinase reaction is initiated by the addition of a substrate cocktail containing MBP and γ-^33P-ATP. […] The phosphorylated MBP is then separated from the residual γ-^33P-ATP using a phosphocellulose membrane (Millipore, Bedford, Mass.) and quantitated using a scintillation counter (Packard, Meriden, Conn.). […]

FGFR = molecular target: T2, FGFR; experiment: in vitro FGFR kinase inhibition HTRF assay; assay type: biochemical; details: recombinant GST-tagged FGFR, 10 μM ATP, 37° C. 30 minutes
T2 construct: fused on or other part: GST tag
Method: To determine inhibition of FGFR activity, kinase assays were conducted using an HTRF (Homogeneous Time Resolved Fluorescence) assay. This assay is described in A. J. Kolb et. al., Drug Discovery Today, 1998, 3(7), p 333.
Prior to kinase reaction, recombinant GST-tagged FGFR enzyme was activated at room temperature for 1 hour in the following activation buffer: 100 mM HEPES, pH 7.4, 50 mM NaCl, 20 mM MgCl2, and 4 mM ATP.
Kinase activity assays were performed in 96-well polypropylene plates (Falcon) with a total volume of 90 μL in each well. Each well contained 1 μM substrate (Biotin-EEEEYFELV), 1.5 μM activated FGFR, and a test compound with one of 8 assay concentrations ranging from 100 μM to […] (1:5 serial dilution). The kinase activity assay was done in the presence of 100 mM HEPES, pH 7.4, 1 mM DTT, 0.1 mM Na2VO4, 0.4 mM MgCl2, 0.4 mM MnCl2, 50 mM NaCl (from KDR stock solution), 1% DMSO (from compound), 10 μM ATP (Km=8.5 μM for FGFR) and 0.02% BSA. The reaction was incubated at 37° C. for 30 minutes. To stop the FGFR reaction, 72 μL of reaction mixture was transferred into a STOP plate containing 18 μL of revelation buffer (20 mM EDTA, 50 mM HEPES, pH 7.4, 0.02% BSA, 10 nM Eu-labelled anti-p Y antibody (final conc. 2 nM), and 100 nM streptavidin (final conc. 20 nM)). After mixing, 35 μL of solution was transferred into duplicate wells of a 384-well black plate (Costar), and read at 615/665 nm on a Wallac Victor 5 reader.
Compound IC50 values were determined from duplicate sets of data, and calculated by using Excel and fitting data to equation Y=[(a−b)/{1+(X/c)^d]+b, where a and b are enzyme activity in the presence of no test inhibitor compound and an infinite amount of inhibitor test compound, respectively, c is the IC50 and d is the hill constant of the compound response. The IC50 value is the concentration of test compound that reduces by 50% the enzyme activity under the test conditions described. Compounds of the invention were active in the assay. Selected IC50 values are shown below.

Structure (SMILES)	IC50 (p38 MAP kinase) [µM]	IC50 (FGFR) [µM]	melting point [°C]
CN1N=C(c2ccccc2F)Oc2cnc(NC3CCOCC3)nc21 [compound 2]	2.2	–	–
CN1N=C(c2ccccc2Cl)Oc2cnc(NC3CCOCC3)nc21 [compound 1, 2-methyl-4-(2-chlorophenyl)-6-(tetrahydropyranyl-4-amino)-4H-1,3,4-pyrimido[4,5-e]oxadiazine]	0.189	–	171 to 172.1
CN1N=C(c2c(Cl)cccc2Cl)Oc2cnc(Nc3ccccc3)nc21 [compound 5, [3-(2,6-dichlorophenyl)-1-methyl-1H-pyrimido[4,5-e][1,3,4]oxadiazin-7-yl]-phenyl-amine]	–	0.18	–
CN1N=C(c2c(Cl)cccc2Cl)Oc2cnc(Nc3ccc(N4CCOCC4)cc3)nc21 [compound 29, [3-(2,6-dichlorophenyl)-1-methyl-1H-pyrimido[4,5-e][1,3,4]oxadiazin-7-yl]-(4-morpholin-4-yl-phenyl)amine]	–	–	192.2 to 200.3

Now from value to compound:

IC50 (p38 MAP kinase) [µM]	IC50 (FGFR) [µM]	melting point [°C]	Structure (SMILES)
–	0.32	–	CN1N=C(c2c(Cl)cccc2Cl)Oc2cnc(Nc3cccc(Cl)c3)nc21 [compound 7, [3-(2,6-Dichloro-phenyl)-1-methyl-1H-pyrimido[4,5-e][1,3,4]oxadiazin-7-yl]-(3-chloro-phenyl)-amine]
–	0.24	–	CN1N=C(c2c(Cl)cccc2Cl)Oc2cnc(Nc3ccc(F)cc3)nc21 [compound 6, [3-(2,6-Dichloro-phenyl)-1-methyl-1H-pyrimido[4,5-e][1,3,4]oxadiazin-7-yl]-(4-fluoro-phenyl)-amine]
